Source: patent publication US20200093801A1, “NEW METHODS FOR THE TREATMENT OF MULTIPLE SCLEROSIS” (Novartis AG, priority 2017, published 2020)
Entries after “also recorded” stand apart in the source; their conditions may differ.

What was measured:
MOG Peptide-Induced EAE = experiment: MOG peptide-induced EAE; format: in vivo, Mice (C57BL/6J OlaHsd); conditions: 100 and 150 mg/kg p.o. qd, day 14 to day 28 post-immunization; compared to vehicle
Description: Mice (C57BL/6J OlaHsd) were commercially purchased from Harlan Laboratories BV (9 weeks old, females). All the animals were allowed to adapt for 7 days prior the start of the experiment and housed in IVC racks (max. 4 mice/XJ Type cage). The animals were given access to food and water ad libitum. Mice were immunized at with subcutaneous injection on the lower back of myelin oligodendrocyte glycoprotein peptide ([…]; in house produced; 200 μg/100 emulsified in 4 mg/ml complete Freund adjuvant (CFA, Sigma). Pertussis toxin (Fluka; 200 ng per mouse) was administered intraperitoneally on day 0 and day 2. Evaluation of EAE: The mice were observed and weighed daily. They were assessed for clinical signs on a scale from 0 to 5, with graduations of 0.5 for intermediate scores. 0: no clinical signs, 1: Limp tail/complete loss of tail tonus; 2: Clear hind limb weakness; 3: Complete bilateral hind limb paralysis; 4: Fore limbs and hind limbs paralysis; 5: Death. Supplementary food and gel food were provided inside the cage once first clinical signs appeared. Animals were treated for 14 days with 100 and 150 mg/kg of BLZ945, qd, p.o. 10 ml/kg from day 14 to day 28 post-immunization. BLZ945 was prepared in 0.5% methylcellulose in water and 0.1% Tween-80.

[1] = test system: Cuprizone-Induced Demyelination in Mice; experiment: Cuprizone-induced demyelination in mice at 20 mg/kg and 60 mg/kg, MRI; format: in vivo, Mice (C57BL/6J)
Description: Studies described below were approved by the Swiss Cantonal Veterinary Authority of Basel City, Switzerland, under the license number 2711. Mice (C57BL/6J) were commercially purchased from Charles River Laboratories, Germany or obtained from Novartis Pharma AG breeding colonies (8-9 weeks old, females). All the animals were allowed to adapt for 7 days prior the start of the experiment and housed in IVC racks (max. 4 mice/XJ Type cage). The animals were given access to food and water ad libitum. Animals were treated with cuprizone for 5 weeks. Cuprizone (Bis(cyclohexanone)oxaldihydrazone, Sigma-Aldrich) was mixed into rodent food pellets (0.2% w/w) by Provimi Kliba AG, Switzerland. Therapeutic treatment of animals after cuprizone was performed for 2 weeks on normal food with 20 and 60 mg/kg of BLZ945, qd, p.o. 10 ml/kg. BLZ945 was prepared in vehicle consisting of 0.5% methylcellulose in water and 0.1% Tween-80. Before killing 3 h after last BLZ945 dosing animals were perfused transcardially by phosphate-buffered saline (PBS), brains isolated and fixed in 4% paraformaldehyde (PFA) for 48 h at 4° C.
Measurements were performed with a Biospec 70/30 spectrometer (Bruker Medical Systems, Ettlingen, Germany) operating at 7 T. The operational software of the scanner was Paravision 5.1 (Bruker). Images were acquired from anesthetized, spontaneously breathing animals using a mouse brain circularly polarized coil (Bruker, Model 1P T20063V3; internal diameter 23 mm) for radiofrequency excitation and detection; neither cardiac nor respiratory triggering was applied. Following a short period of introduction in a box, animals were maintained in anesthesia with 1.5% isoflurane (Abbott, Cham, Switzerland) in oxygen, administered via a nose cone. During MRI signal acquisitions, animals were placed in prone position in a cradle made of Plexiglas, the body temperature was kept at 37±1° C. using a heating pad, and the respiration was monitored.
A T2-weighted, two-dimensional multislice RARE (Rapid Acquisition with Relaxation Enhancement) sequence (Hennig et al., 1986) was used for determining the anatomical orientation and for evaluating signal intensities. This was followed by a two-dimensional multislice gradient-recalled FLASH (Fast Low-Angle Shot) acquisition (Haase et al., 1986) for assessment of MTR. As both sequences had the same anatomical parameters, the choice of the regions-of-interest for evaluations was performed on the RARE images and then transferred to the FLASH images. The parameters of the acquisitions were the following: (a) RARE sequence: effective echo time 80 ms, repetition time 3280 ms, RARE factor 16, 12 averages, field of view 20×18 mm^2, matrix size 213×192, pixel size 0.094×0.094 mm^2, slice thickness 0.5 mm, 15 adjacent slices. Hermite pulses of duration/bandwidth 1 ms/5400 Hz and 0.64 ms/5344 Hz were used for radiofrequency excitation and refocusing, respectively. Fat suppression was achieved by a gauss512 pulse of 2.61 ms/1051 Hz duration/bandwidth followed by a 2-ms-long gradient spoiler. The total acquisition time was of 7 min 52.3 s; (b) FLASH sequence: echo time 2.8 ms, repetition time 252.8 ms, 4 averages, field of view 20×18 mm^2, matrix size 213×192, pixel size 0.094×0.094 mm^2, slice thickness 0.5 mm, 15 adjacent slices. A hermite pulse of 0.9 ms/6000 Hz duration/bandwidth and flipangle 30° was used for radiofrequency excitation. MTR contrast was introduced by a gauss pulse of 15 ms/182.7 Hz duration/bandwidth applied with a radiofrequency peak amplitude of 7.5 μT and an irradiation offset of 2500 Hz. The acquisition was then repeated with the same parameters but without the introduction of the MTR contrast. MTR was then computed using the formula MTR=(S0−SMTR)/S0, where S0 and SMTR represent respectively the signal intensities in the FLASH acquisitions without and with the introduction of the MTR contrast. The total acquisition time for both data sets was of 6 min 31.6 seconds.

[2] = 60 mg/kg p.o. qd, therapeutic mode after 5 weeks cuprizone
[3] = 20 and 60 mg/kg p.o. qd, 2-week therapeutic treatment after 5 weeks 0.2% cuprizone, FIG. 9 legend

With `CNC(=O)c1cc(Oc2ccc3nc(N[C@@H]4CCCC[C@H]4O)sc3c2)ccn1` [BLZ945, 4-(2-((1R,2R)-2-hydroxycyclohexylamino)benzothiazol-6-yloxy)-N-methylpicolinamide] the “EAE clinical score / disease progression” value (MOG Peptide-Induced EAE) was “did not alter disease progression; also recorded: No difference”, the EAE disease onset/incidences (MOG Peptide-Induced EAE) was “similar” and the “Weight change in EAE mice” value (MOG Peptide-Induced EAE) was “similar”. The “Remyelination by MRI, corpus callosum/external capsule” value [1, 2] was “significantly enhanced remyelination”, the “Remyelination by MRI, cortex” value [1, 2] was “significantly enhanced remyelination” and the “Remyelination by MRI, striatum” value [1, 2] was “only a trend”. The “MRI contrast in corpus callosum” value [1, 3] was “not corpus callosum”, the “MRI contrast in cortex” value [1, 3] was “reduces MRI contrast” and the “MRI contrast in striatum” value [1, 3] was “reduces MRI contrast”. The “Remyelination as detected by MRI” value ([1]; lower doses (20 and 60 mg/kg), short-term treatment for only 1 week, 5-week cuprizone model) was “beneficial effects on remyelination”.
